In patent US12344599B2, “Prodigiosin analogs and methods of use” (Institute For Cancer Research, priority 2016, dated 2025):
Entries after “also recorded” stand apart in the source; their conditions may differ.

Tests used:
DLD1 = experiment: CellTiterGlo cell viability assay, DLD1; type: cell-based; settings: Homo sapiens, DLD-1; DLD1, colorectal cancer, p53 S241F, 72 hours
Procedure: (§1) • 1) Cell lines: HT29, SW480, DLD-1, HCT116, and p53-null HCT116 cells, H1975, MDA-MD-231, U251, FaDu, CAL-27, PANC-1, Aspc-1, and MRC5 were obtained from the ATCC and cultured as recommended. Cells were regularly authenticated by bioluminescence, growth, and morphologic observation. The cells were routinely examined for Mycoplasma and all cell lines underwent STR authentication. • 2) Western blotting: After treatment, protein lysates were collected for Western blot analysis. 15 μg of protein was used for SDS-PAGE. After primary and secondary antibody incubations, the signal was detected by chemiluminescent detection kit, imaged by Syngene (Imgen Technologies). […] The cell viability was assessed by CellTiterGlo bioluminescent cell proliferation assay (Promega), following the manufacturer's protocol. Bioluminescence imaging was measured using the IVIS imager. Percentage of cell viability (mean±SEM) at each dose was calculated against the respective DMSO control. The IC50 values were determined from the sigmoidal dose-response curves using GraphPad Prims4. • 4) Caspase activity assay: Cells were seeded in 96-well plate (1×10^4 cells/well). […] The caspase 3/7 activity was assessed by Caspase-Glo® 3/7 Assay kit (Promega), following the manufacturer's protocol. Bioluminescence imaging was measured using the IVIS imager. […]

PANC-1 = experiment: CellTiterGlo cell viability assay, PANC-1; type: cell-based; settings: Homo sapiens; PANC-1, pancreatic cancer, p53 R273H, 72 hours
Procedure: as §1

MDA-MB-468 = experiment: CellTiterGlo cell viability assay, MDA-MB-468; type: cell-based; settings: Homo sapiens; MDA-MB-468, breast cancer, p53 R273H, 72 hours
[1] = test system: human cancer cells with mutant p53; experiment: CellTiterGlo cell viability assay, panel of cancer cell lines; type: cell-based
Procedure: as §1

p53-target genes = experiment: Western blotting of p53-target genes (Example 1); type: cell-based, human
Procedure: After treatment, protein lysates were collected for Western blot analysis. Twenty-five micrograms of protein were used for SDS-PAGE. After primary and secondary antibody incubations, the signal was detected with a chemiluminescent detection kit, followed by autoradiography or Syngen. […] In FIG. 10, p53-null HCT116 cells were treated with P01 and P306, alone or in combination with SiCon or SiTAp73, in various concentrations for 6 hours, and tested for p73 (C.S.), p73 (Bethyl), P63-α, p53, DR5, Puma, P21, and Ran proteins.

HCT116 p53−/− cells = experiment: qRT-PCR of p53 target gene mRNA, HCT116 p53−/−; type: cell-based, human; settings: 1 μM
Procedure: as §1

[2] = test system: ATF4 and CHOP in HCT116 p53−/− cells; experiment: Western blot of ATF4 and CHOP, HCT116 p53−/−; type: cell-based, human
Procedure: as §1

c-Myc and PUMA = experiment: Western blot of c-Myc, PUMA and p53 target genes; type: cell-based, human; settings: colorectal cancer cell lines and Jurkat cells
Procedure: After treatment, protein lysates were collected for Western blot analysis. A total of […] of protein was used for SDS-PAGE. After primary and secondary antibody incubations, the signal was detected by a chemiluminescence detection kit, imaged by Syngene (Imgen Technologies). Antibodies for PUMA (for IHC), p53 (Santa Cruz Biotechnology), caspase 8, cleaved caspase 8, caspase 9, caspase 3, cleavage PARP, eIF2α, p-eIF2α (Ser51), CHOP, ATF4, DR5, FOXO3a, p-FOXO3a (Ser253), NF-κB p65, p-NF-κB p65 (Ser536), c-Jun, p-c-Jun (Ser63), JNK, p-JNK (Thr183/Tyr185), PUMA (for WB), c-Myc, phosphor-S62-cMyc (Cell Signaling Technology), Noxa, p21 (Calbiochem), p73 (Bethyl laboratories Inc), Ran (BD Biosciences), […] (Sigma).
To test this hypothesis, two ERK1/2 inhibitors that act by different mechanisms were used. U0126 is an indirect ERK1/2 inhibitor. It inhibits MEK1 kinase and blocks the phosphorylation of ERK1/2. […] Consistent with a previous publication (Choi et al., Genes Dev, 2010, 24, 1236-1241), SCH772984 can inhibit ERK1/2 function after ERK1/2 is phosphorylated (FIG. 73), and the same is observed for PG3-Oc (FIG. 73).

For `CCCCCCCCOC(=O)CCc1c(C)[nH]c(/C=C2\N=C(c3ccc[nH]3)C=C2OC)c1C` [PG3-Oc, Octyl (Z)-3-(5-((4′-methoxy-1H,5′H-[2,2′-bipyrrol]-5′-ylidene)methyl)-2,4-dimethyl-1H-pyrrol-3-yl)propanoate], the IC50 (DLD1) was 54 nM, the IC50 (PANC-1) was 136 nM and the IC50 (MDA-MB-468) was 97.6 nM. For the same compound, the “potency for inhibition of cancer cell growth” value ([1]; HCT116 and SW480, 72 hours, comparison with prodigiosin and obatoclax) was “comparable with prodigiosin (P) and obatoclax (Ob); also recorded: comparable to prodigiosin and obatoclax”, the IC50 values ([1]; panel of human cancer cell lines with mutant p53, 72 hours) was “within the nano-molar range” and the “expression of p53-target genes” value (p53-target genes) was “induced mutant p53 and ΔNp73 degradation and the expression of p53-target genes”. The “change of DR5 mRNA” value (HCT116 p53−/− cells) was “no significant change”, the “induction of p21 mRNA” value (HCT116 p53−/− cells; 8 and 19 hours post-treatment) was “Over 3 fold” and the “concentration at which induction of ATF4 and CHOP occurred” value [2] was 1.25 µM. For the same compound, the “effect on c-Myc” value (c-Myc and PUMA) was “potently downregulated c-Myc”.
